Laboratory results as given in patent US12201649B2, “Pharmaceutical composition comprising oxidizable biphenol and manganese porphyrin, and method of using the same” (Villanova University, priority 2021, dated 2025).
Read-outs that look alike come from different tables or passages of the source.

Tests used:
[1] = system: MDA-MB-231 breast cancer cells; conditions: 24 hours; for efficacy at killing breast cancer cells compared with MnTM4PyP: when combined with tBHQ
Jurkat cells [2] = assay: apoptosis (Annexin-PE) and necrosis (RedDot 2) by flow cytometry, 4 hours; assay type: cell-based, human; conditions: for effect on Jurkat cells (alive, apoptotic, necrotic): 4 hours
Procedure: Referring to FIGS. 4, 5, 6, 8, 12 and 15, cells were treated with the indicated compounds or vehicle for 4 hours in RPMI medium with 10% fetal bovine serum (FBS). RPMI medium, also known as RPMI 1640, is a growth medium used in cell culture. In these and other figures, “vehicle” represents when a treatment compound is omitted and replaced with the vehicle that the compound is dissolved in. Thus, when a MnP is omitted, water is added in its place. When an oxidizable phenol is omitted, DMSO is added for a resulting final concentration in the cell media of 0.05% DMSO. Apoptosis was measured using Annexin-PE, and necrosis was measured with RedDot 2. Fluorescence was read on an Accuri C6 flow cytometer with excitation from a 488 nm laser, and FL2 and FL4 filters were used for Annexin-PE and RedDot2, respectively. 10,000 events were acquired. Flow cytometry data was analyzed using Flowlogic software from Inivai Technologies of Australia. […] Percentage of alive, apoptotic, or necrotic cells was determined and graphed as the average±the standard deviation.
The combination of tBHQ and MnTMPyP is toxic to Jurkat cells, a CD4+ T-cell leukemic cell line. […] Cells that were alive, apoptotic or necrotic were determined using flow cytometry. Two specimens (biological duplicates) were measured for each sample.
Cells that were alive, apoptotic or necrotic were determined using flow cytometry, with n=2 (biological duplicates).
Referring to FIG. 12, unlike tBHQ, dtBHQ has no toxicity to Jurkat cells in combination with MnTMPyP. […] Cells that were alive, apoptotic or necrotic were determined using flow cytometry, with n=2 (biological duplicates).
Referring to FIG. 15, Jurkat cell death upon exposure to MNTE-2-PyP and MnTNBuOE-2-PyP (labelled as Mn2E and Mn2BuOE, respectively, in FIG. 15) are compared with that of exposure to Mn4M. […] Cells that were alive, apoptotic or necrotic were determined using flow cytometry, with n=2 (technical duplicates).
Jurkat cells were treated with 5 mM ascorbic acid or 5 μM tBHQ with or without 12 μM MnTMPyP for 4 h. Apoptosis was measured using Annexin-PE, necrosis with RedDot 2. […]

NALM6 cells = assay: as above; assay type: cell-based; conditions: tBHQ or 12 μM MnTMPyP alone
[3] = system: PC3 prostate cancer cells; assay: cells; conditions: 24 h
Jurkat cells [4] = assay: cells; conditions: Homo sapiens, 24 h
Procedure: Referring to FIG. 16, Jurkat cells were treated with the indicated compounds for 24 hours in RPMI with 2% FBS. Live cells were measured using the CellTiter-Fluor dye, which enters living cells and is cleaved by intracellular proteases to release the fluorescent coumarin molecule. Fluorescence was measured on a ClarioStar Plus plate reader in a 96-well plate format with excitation at 390 nm and emission capture at 505 nm. […] Data are graphed as the average±the standard error, along with the fit.
The relative number of viable cells in a sample was determined using CellTiter-Fluor dye with relative fluorescence units (RFU). […] The LC50 value for a compound is the concentration required to kill half of the cells tested after a specified test duration such as 24 hours.

[5] = system: MDA-MB-231 breast cancer cells; assay: cells; conditions: Homo sapiens, MDA-MB-231, 24 h
[6] = read-out: LC50 for tBHQ in the presence of Mn2BuOE

**Q.** Which “efficacy at killing breast cancer cells compared with MnTM4PyP” value [1] does the source give for `CCCCOCC[n+]1ccccc1-c1c2nc(c(-c3cccc[n+]3CCOCCCC)c3ccc([nH]3)c(-c3cccc[n+]3CCOCCCC)c3nc(c(-c4cccc[n+]4CCOCCCC)c4ccc1[nH]4)C=C3)C=C2.[Mn+3]` [Mn2BuOE] here?
**A.** higher efficacy

**Q.** What about the “concentration at which Mn2BuOE is active” value ([1]; with 20 μM tBHQ) of the same compound?
**A.** less than 1 μM

**Q.** And the “toxicity of Mn2BuOE alone” value ([1]; without tBHQ, tested concentrations)?
**A.** not toxic at tested concentrations

**Q.** What about the “effectiveness at 1.2 μM versus 12 μM” value (Jurkat cells [2]; in combination with 5 μM tBHQ, four hours) of the same compound?
**A.** almost as effective at 1.2 μM as it was at 12 μM

**Q.** For `CC[n+]1ccccc1-c1c2nc(c(-c3cccc[n+]3CC)c3ccc([n-]3)c(-c3cccc[n+]3CC)c3nc(c(-c4cccc[n+]4CC)c4ccc1[n-]4)C=C3)C=C2.[Mn+3]` [Mn2TE2], which “efficacy at killing breast cancer cells compared with MnTM4PyP” value [1] is on record?
**A.** higher efficacy

**Q.** `C[n+]1ccc(-c2c3nc(c(-c4cc[n+](C)cc4)c4ccc([nH]4)c(-c4cc[n+](C)cc4)c4nc(c(-c5cc[n+](C)cc5)c5ccc2[nH]5)C=C4)C=C3)cc1.[Mn+3]` [MnTMPyP, Mn(III)tetrakis(1-methyl-4-pyridyl)porphyrin] was tested. Which “effect on Jurkat cells (alive, apoptotic, necrotic)” value (Jurkat cells [2]; 12 μM MnTMPyP alone) did it give?
**A.** largely unaffected

**Q.** What about the “toxicity to NALM6 cells, compound individually” value (NALM6 cells) of the same compound?
**A.** low toxicity

**Q.** With `CC(C)(C)c1cc(O)ccc1O` [tBHQ, tert-butylhydroquinone] as the compound, how does the CC50 ([3]; read-out: LC50 for tBHQ alone) read?
**A.** > 100 µM

**Q.** What about the CC50 [3, 6] of the same compound?
**A.** 16 ± 7 µM

**Q.** What about the “toxicity of tBHQ alone” value ([1]; at 100 μM tBHQ) of the same compound?
**A.** no toxicity observed

**Q.** And the “effect on Jurkat cells (alive, apoptotic, necrotic)” value (Jurkat cells [2]; 5 μM to 20 μM tBHQ alone)?
**A.** largely unaffected

**Q.** And the CC50 (Jurkat cells [4]; read-out: LC50 for tBHQ alone)?
**A.** 80 ± 30 µM

**Q.** And the CC50 (Jurkat cells [4]; [6])?
**A.** 1.29 ± 0.04 µM

**Q.** What about the “toxicity to NALM6 cells, compound individually” value (NALM6 cells) of the same compound?
**A.** low toxicity

**Q.** What about the CC50 ([5]; read-out: LC50 for tBHQ alone) of the same compound?
**A.** > 100 µM

**Q.** And the CC50 ([5]; read-out: LC50 for tBHQ in the presence of MnTMPyP)?
**A.** 20 µM
